This is an account of results in US20260274892A1, “MACROCYCLIC BROAD SPECTRUM ANTIBIOTICS” (RQx Pharmaceuticals, Inc., priority 2017, published 2026).

In experiment [1] the test system is Escherichia coli ATCC 25922. Briefly: Minimum inhibitory concentration (MIC), CLSI broth micro-dilution, E. coli. The experiment is classed as cell-based. In short, it runs like this:
(§1)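 Antibacterial potency is measured as MIC by the CLSI broth dilution method. Bacteria at OD600 0.0005 in Tween-80-supplemented cation-adjusted Mueller Hinton broth face ten twofold compound dilutions for 22 h at 35° C.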

For experiment [2], the system named is Methicillin Resistant Staphylococcus aureus strain USA 200. As to the kind of experiment: Minimum inhibitory concentration (MIC), CLSI broth micro-dilution, S. aureus. The experiment is classed as cell-based. Particulars: MRSA USA 200, cation adjusted Mueller Hinton Broth + 0.002% Tween-80, 35° C., 22 hours. In short, it runs like this: as §1
Background: In broth dilution the organism is exposed to a series of concentrations in liquid medium.

Where [3] appears, read: Escherichia coli, ATCC25922, 22 h, Table 6, cation adjusted Mueller Hinton Broth + 0.002% Tween-80, 35° C.
Where [4] appears, read: Staphylococcus aureus, MRSA / USA200, Table 6.

As usually defined, the MIC is the lowest concentration found to suppress growth.

Turning to `CCCCCCCCc1ccc(C(=O)N[C@@H](CCC(=O)NC(CO)CO)C(=O)N(C)[C@@H]2C(=O)N[C@@H](C)C(=O)N[C@H](C(=O)NCC#N)Cc3ccc(OCCN)c(c3)-c3cc2ccc3OCCN)c(C)c1` (racemic) [Compound 448, rac-(2S)-N′-[2-hydroxy-1-(hydroxymethyl)ethyl]-N-methyl-2-[(2-methyl-4-octyl-benzoyl)amino]-N-[rac-(7S,10S,13S)-3,18-bis(2-aminoethoxy)-13-(cyanomethylcarbamoyl)-10-methyl-8,11-dioxo-9,12-diazatricyclo[13.3.1.12,6]icosa-1(19),2,4,6(20),15,17-hexaen-7-yl]pentanediamide], the MIC in experiment [1] (setting [3]) came to 4.1 µM; in experiment [2] (setting [4]), 0.13 µM.
Taken in the same sequence, the figures for `Cc1nc(C#CC(C)(C)C)ccc1C(=O)N[C@@H](CCN)C(=O)N(C)[C@@H]1C(=O)N[C@@H](C)C(=O)N[C@H](C(=O)NCC#N)Cc2ccc(OCCN)c(c2)-c2cc1ccc2OCCN` (racemic) [Compound 213, rac-(8S,11S,14S)-3,18-bis(2-aminoethoxy)-N-(cyanomethyl)-11-methyl-14-[methyl-[rac-(2S)-4-amino-2-[[6-(3,3-dimethylbut-1-ynyl)-2-methyl-pyridine-3-carbonyl]amino]butanoyl]amino]-10,13-dioxo-9,12-diazatricyclo[13.3.1.12,6]icosa-1(18),2(20),3,5,15(19),16-hexaene-8-carboxamide] were 1.1 µM and 0.28 µM.
Taken in the same sequence, the figures for `Cc1nc(-c2ccc(CC(C)C)cc2)ccc1C(=O)N[C@@H](CCN)C(=O)N(C)[C@@H]1C(=O)N[C@@H](C)C(=O)N[C@H](C(=O)NCC#N)Cc2ccc(O)c(c2)-c2cc1ccc2O` (racemic) [Compound 430, rac-(8S,11S,14S)-N-(cyanomethyl)-3,18-dihydroxy-11-methyl-14-[methyl-[rac-(2S)-4-amino-2-[[6-(4-isobutylphenyl)-2-methyl-pyridine-3-carbonyl]amino]butanoyl]amino]-10,13-dioxo-9,12-diazatricyclo[13.3.1.12,6]icosa-1(18),2(20),3,5,15(19),16-hexaene-8-carboxamide] were 4.7 µM and 0.15 µM.
Take `CCCC(CCC)Oc1ccc(-c2nc(C)c(C(=O)N[C@@H](CCN)C(=O)N(C)[C@@H]3C(=O)N[C@@H](C)C(=O)N[C@H](C(=O)NCC#N)Cc4ccc(OCCN)c(c4)-c4cc3ccc4OCCN)c(C)n2)cc1` (racemic) [Compound 341, rac-(8S,11S,14S)-3,18-bis(2-aminoethoxy)-N-(cyanomethyl)-11-methyl-14-[methyl-[rac-(2S)-4-amino-2-[[4,6-dimethyl-2-[4-(1-propylbutoxy)phenyl]pyrimidine-5-carbonyl]amino]butanoyl]amino]-10,13-dioxo-9,12-diazatricyclo[13.3.1.12,6]icosa-1(18),2(20),3,5,15(19),16-hexaene-8-carboxamide]: the figures for the MIC in experiment [1] (setting [3]) and in experiment [2] (setting [4]) were 0.13 µM and 0.016 µM, respectively.
As for `CCC1(c2ccc(-c3nc(C)c(C(=O)N[C@@H](CCN)C(=O)N(C)[C@@H]4C(=O)N[C@@H](C)C(=O)N[C@H](C(=O)NCC#N)Cc5ccc(OCCN)c(c5)-c5cc4ccc5OCCN)c(C)n3)cc2)CC1` (racemic) [Compound 281, rac-(8S,11S,14S)-3,18-bis(2-aminoethoxy)-N-(cyanomethyl)-11-methyl-14-[methyl-[rac-(2S)-4-amino-2-[[2-[4-(1-ethylcyclopropyl)phenyl]-4,6-dimethyl-pyrimidine-5-carbonyl]amino]butanoyl]amino]-10,13-dioxo-9,12-diazatricyclo[13.3.1.12,6]icosa-1(18),2(20),3,5,15(19),16-hexaene-8-carboxamide], the values for the MIC in experiment [1] (setting [3]) and in experiment [2] (setting [4]) were 0.065 µM and 0.016 µM, respectively.
`CCCCC1(c2ccc(-c3nc(C)c(C(=O)N[C@@H](CCN)C(=O)N(C)[C@@H]4C(=O)N[C@@H](C)C(=O)N[C@H](C(=O)NCC#N)Cc5ccc(OCCN)c(c5)-c5cc4ccc5OCCN)c(C)n3)cc2)CC1` (racemic) [Compound 283, rac-(8S,11S,14S)-3,18-bis(2-aminoethoxy)-N-(cyanomethyl)-11-methyl-14-[methyl-[rac-(2S)-4-amino-2-[[2-[4-(1-butylcyclopropyl)phenyl]-4,6-dimethyl-pyrimidine-5-carbonyl]amino]butanoyl]amino]-10,13-dioxo-9,12-diazatricyclo[13.3.1.12,6]icosa-1(18),2(20),3,5,15(19),16-hexaene-8-carboxamide]: the figures for the MIC in experiment [1] (setting [3]) and in experiment [2] (setting [4]) were 0.094 µM and 0.012 µM, respectively.
With `Cc1nc([C@H]2CC[C@@H](C(C)(C)C)CC2)nc(C)c1C(=O)N[C@@H](CCN)C(=O)N(C)[C@@H]1C(=O)N[C@@H](C)C(=O)N[C@H](C(=O)NCC#N)Cc2ccc(OCCN)c(c2)-c2cc1ccc2OCCN` [Compound 297, rac-(8S,11S,14S)-3,18-bis(2-aminoethoxy)-N-(cyanomethyl)-11-methyl-14-[methyl-[rac-(2S)-4-amino-2-[[2-(4-tert-butylcyclohexyl)-4,6-dimethyl-pyrimidine-5-carbonyl]amino]butanoyl]amino]-10,13-dioxo-9,12-diazatricyclo[13.3.1.12,6]icosa-1(18),2(20),3,5,15(19),16-hexaene-8-carboxamide], the MIC in experiment [1] (setting [3]) worked out at 0.75 µM; in experiment [2] (setting [4]), 0.016 µM.
Taken in the same sequence, the figures for `Cc1nc(-c2ccc(C(C)(C)C)cc2)ncc1C(=O)N[C@@H](CCNC(N)=O)C(=O)N(C)[C@@H]1C(=O)N[C@@H](C)C(=O)N[C@H](C(=O)NCC#N)Cc2ccc(OCCN)c(c2)-c2cc1ccc2OCCN` (racemic) [Compound 452, rac-(8S,11S,14S)-3,18-bis(2-aminoethoxy)-N-(cyanomethyl)-11-methyl-14-[methyl-[rac-(2S)-2-[[2-(4-tert-butylphenyl)-4-methyl-pyrimidine-5-carbonyl]amino]-4-ureido-butanoyl]amino]-10,13-dioxo-9,12-diazatricyclo[13.3.1.12,6]icosa-1(18),2(20),3,5,15(19),16-hexaene-8-carboxamide] were 1.3 µM and 0.13 µM.
As to `Cc1cc(-c2ccc(C(C)(C)C)cc2)nc(C)c1C(=O)N[C@@H](CCN)C(=O)N(C)[C@@H]1C(=O)N[C@@H](C)C(=O)N[C@H](C(=O)O)Cc2ccc(O)c(c2)-c2cc1ccc2OCCN` (racemic) [Compound 644, rac-(8S,11S,14S)-18-(2-aminoethoxy)-3-hydroxy-11-methyl-14-[methyl-[rac-(2S)-4-amino-2-[[6-(4-tert-butylphenyl)-2,4-dimethyl-pyridine-3-carbonyl]amino]butanoyl]amino]-10,13-dioxo-9,12-diazatricyclo [13.3.1.12,6]icosa-1(18),2(20),3,5,15(19), 16-hexaene-8-carboxylic acid], the MIC in experiment [1] (Escherichia coli, ATCC25922, 22 h, Table 8, cation adjusted Mueller Hinton Broth + 0.002% Tween-80, 35° C.) worked out at 0.58 µM; in experiment [2] (Staphylococcus aureus, MRSA / USA200, Table 8) it was 1.2 µM.
For `CCCCCCCCCCCCCC(=O)N1C[C@H](N)CC1C(=O)N(C)[C@@H]1C(=O)N[C@@H](C)C(=O)N[C@H](C(=O)NCC#N)Cc2ccc(OCCN)c(c2)-c2cc1ccc2OCCN` (mixture of isomers) [Compound 483, rac-(8S,11S,14S)-3,18-bis(2-aminoethoxy)-14-[(4-amino-1-tetradecanoyl-pyrrolidine-2-carbonyl)-methyl-amino]-N-(cyanomethyl)-11-methyl-10,13-dioxo-9,12-diazatricyclo[13.3.1.12,6]icosa-1(18),2(20),3,5,15(19),16-hexaene-8-carboxamide], the MIC is reported as 0.29 µM in experiment [1] (Table 6, cation adjusted Mueller Hinton Broth + 0.002% Tween-80, 35° C., 22 hours) and 0.036 µM in experiment [2] (Table 6).
`Cc1nc(-c2ccc(C(C)(C)C)cc2)nc(N)c1C(=O)N[C@@H](CCN)C(=O)N(C)[C@@H]1C(=O)N[C@@H](C)C(=O)N[C@H](C(=O)NCC#N)Cc2ccc(O)c(c2)-c2cc1ccc2OCCN` (racemic) [Compound 548, rac-(8S,11S,14S)-18-(2-aminoethoxy)-N-(cyanomethyl)-3-hydroxy-11-methyl-14-[methyl-[rac-(2S)-4-amino-2-[[4-amino-2-(4-tert-butylphenyl)-6-methyl-pyrimidine-5-carbonyl]amino]butanoyl]amino]-10,13-dioxo-9,12-diazatricyclo[13.3.1.12,6]icosa-1(18),2(20),3,5,15(19),16-hexaene-8-carboxamide]: the MIC amounted to 0.46 µM in experiment [1] (setting [3]) and 0.047 µM in experiment [2] (setting [4]).
As for `Cc1nc(-c2ccc(C3(C)CC3)cc2)ncc1C(=O)N[C@@H](CCN)C(=O)N(C)[C@@H]1C(=O)N[C@@H](C)C(=O)N[C@H](C(=O)NCC#N)Cc2ccc(OCCN)c(c2)-c2cc1ccc2OCCN` (racemic) [Compound 224, rac-(8S,11S,14S)-3,18-bis(2-aminoethoxy)-N-(cyanomethyl)-11-methyl-14-[methyl-[rac-(2S)-4-amino-2-[[4-methyl-2-[4-(1-methylcyclopropyl)phenyl]pyrimidine-5-carbonyl]amino]butanoyl]amino]-10,13-dioxo-9,12-diazatricyclo[13.3.1.12,6]icosa-1(18),2(20),3,5,15(19),16-hexaene-8-carboxamide], the MIC came out at 0.13 µM in experiment [1] (setting [3]) and 0.017 µM in experiment [2] (setting [4]).
Taken in the same sequence, the figures for `CCCCCc1ccc(-c2ccc(C(=O)N[C@@H](CCN)C(=O)N(C)[C@@H]3C(=O)N[C@@H](C)C(=O)N[C@H](C(=O)NCC#N)Cc4ccc(OCCN)c(c4)-c4cc3ccc4OCCN)c(C)n2)cc1` (racemic) [Compound 205, rac-(8S,11S,14S)-3,18-bis(2-aminoethoxy)-N-(cyanomethyl)-11-methyl-14-[methyl-[rac-(2S)-4-amino-2-[[2-methyl-6-(4-pentylphenyl)pyridine-3-carbonyl]amino]butanoyl]amino]-10,13-dioxo-9,12-diazatricyclo[13.3.1.12,6]icosa-1(18),2(20),3,5,15(19),16-hexaene-8-carboxamide] were 0.066 µM and 0.012 µM.
